Assay results reported in patent US20210047192A1, “DELAYED RELEASE FORMULATION OF NITRIFICATION INHIBITORS” (BASF SE, priority 2018, published 2021).

Experiments:
[1] = system: sandy soil; experiment: Nitrogen retention in field trials (NH4-nitrogen content of soil); assay type: in vivo; settings: incorporation depth 0 cm
Experimental: An area of sandy soil, previously untreated with fertilizer or other agricultural products near the field station Limburgerh of, was treated as follows. Drainage pipes of 20 cm in length and 12 cm diameter were inserted 10 cm deep into the soil. A treatment as indicated in a line of Table 10 was added on top of the soil under which a pipe was buried. At the beginning of the experiment and after three weeks, the pipes were dug out of the soil with its content, the content emptied into a bag and frozen on site. The soil was then analyzed for NH4-nitrogen content in the laboratory according to the following method: Samples were defrosted for 24 h, then sieved through a 5-6 mm mesh sieve. 200 g of the thus homogenized samples were put into 1 L plastic bottles and 600 mL of a […] solution (1% (w/w) K2SO4 in water) were added. The samples were then shaken for 2 h end over end. The solution was filtered to remove the soil and 50 mL of the filtrate retained for analysis in a Continuous Flow Analyzer for NH4-nitrogen content.

[2] = Volatility measurement at 35° C. (weight loss of beakers in oil bath); assay type: physicochemical; settings: relative to the initial weight, after 23 hours at 35° C.
Experimental: Five beakers B1-B5 were prepared containing samples as specified in Table 2
(§1) All 5 beakers were mounted in an oil bath such that half of the beakers were immersed. The temperature of the oil bath was set to 35° C. During the heating process, the beakers were periodically taken out of the oil bath, dried, and weighted. The total mass of the beaker with samples was noted and compared to the initial weight of the beakers with samples. The weight loss attributed to Compound A was calculated from the total weight loss of the sample by taking the loading of the respective sample with Compound A into account. A comparison of the weight loss of Compound A, and the whole sample weight loss in the all 5 beakers after 23 hours at 35° C. was shown in the Table 3.

[3] = Volatility measurement at 60° C. (weight loss after 32 hours); assay type: physicochemical; settings: relative to the initial weight, after 32 hours at 60° C.
Experimental: as §1
Five beakers B1-B5 were prepared and treated as described in Example-1 with the differences that the oil bath was set to 60° C. and that the weight loss was recorded after 32 hours.

[4] = Volatility measurement at 100° C.; assay type: physicochemical; settings: relative to the initial weight, after hours at 100° C.
Experimental: as §1
Five beakers B1-B5 were prepared and treated as described in Example-1 with the differences that the oil bath was set to 100° C. and that the weight loss was recorded after […].

[5] = Volatility measurement at 60° C. with different loading for 24 or 72 hours (beakers B11-B15); assay type: physicochemical; settings: relative to the initial weight
Experimental: Five beakers B11-B15 were prepared containing samples as specified in Table 8.
All 5 beakers B11-B15 were mounted in an oil bath such that half of the beakers were immersed. The temperature of the oil bath was set to 60′C. During the heating process, the beakers were periodically taken out of the oil bath, dried, and weighted. The total mass of the beaker with samples was noted and compared to the initial weight of the beakers with samples. The weight loss attributed to Compound A was calculated from the total weight loss of the sample by taking the loading of the respective sample with Compound A into account. A comparison of the weight loss of Compound A, and the whole sample weight loss in the all 5 beakers after 24 and 72 hours at 60° C. was shown in the Table 9.

| SMILES | NH4-nitrogen ([1]; 3 weeks after application) [kg/ha] | NH4-nitrogen ([1]; at time of application) [kg/ha] | Total sample weight loss [2] [%] | Weight loss of Compound A [2] [%] | Total sample weight loss [3] [%] | Weight loss of Compound A [3] [%] | Total sample weight loss [4] [%] | Weight loss of Compound A [4] [%] | Total sample weight loss after 24 hours ([5]; 24 hours) [%] | Weight loss of Compound A after 24 hours ([5]; 24 hours) [%] | Total sample weight loss after 72 hours ([5]; 72 hours) [%] | Weight loss of Compound A after 72 hours ([5]; 72 hours) [%] |
| --- | --- | --- | --- | --- | --- | --- | --- | --- | --- | --- | --- | --- |
| N.N.O=S(=O)(O)O [Ammonium Sulfate] | 8 | 75 |  |  |  |  |  |  |  |  |  |  |
| C#CCOCc1ccc(Cl)cc1 [Compound A, 1-chloro-4-(prop-2-ynoxymethyl)benzene] |  |  | 4.22 | 4.22 | 37.97 | 37.97 | 68.82 | 68.82 | 9.02 | 9.02 | 26.99 | 26.99 |
